Experimental data published in article PMC4843002, “Identification of pyrazolopyridazinones as PDEδ inhibitors” (Nature Communications, 2016).

Experiments:
D2S (h) = target: T1, D2S (h) (Homo sapiens, UniProt P14416); assay: Cerep binding, antagonist radioligand; conditions: read-out: % Inhibition of Control Specific Binding
T1 construct: purchased Eurofins Pharma Discovery Services (CEREP diversity panel)

ETA (h) = target: T2, ETA (h) (Homo sapiens, UniProt P25101); assay: Cerep binding, agonist radioligand; conditions: read-out: % Inhibition of Control Specific Binding
T2 construct: purchased Eurofins Pharma Discovery Services (CEREP diversity panel)

[1] = tested on: Ca2+ channel (L, verapamil site) (phenylalkylamine); assay: Cerep binding, antagonist radioligand; conditions: 5 µM
CRF1 (h) = target: T3, CRF1 (h) (Homo sapiens, UniProt P34998); assay: Cerep binding, agonist radioligand; conditions: read-out: % Inhibition of Control Specific Binding
T3 construct: purchased Eurofins Pharma Discovery Services (CEREP diversity panel)

TRH1 (h) = target: T4, TRH1 (h) (Homo sapiens, UniProt P34981); assay: Cerep binding, agonist radioligand; conditions: read-out: % Inhibition of Control Specific Binding
T4 construct: purchased Eurofins Pharma Discovery Services (CEREP diversity panel)

AT2 (h) = target: T5, AT2 (h) (Homo sapiens, UniProt P50052); assay: Cerep binding, agonist radioligand; conditions: read-out: % Inhibition of Control Specific Binding
T5 construct: purchased Eurofins Pharma Discovery Services (CEREP diversity panel)

kainate = assay: Cerep binding, agonist radioligand; conditions: 5 µM
BZD (central) = assay: Cerep binding, agonist radioligand; conditions: 5 µM
CB2 (h) = target: T6, CB2 (h) (Homo sapiens, UniProt P34972); assay: Cerep binding, agonist radioligand; conditions: read-out: % Inhibition of Control Specific Binding
T6 construct: purchased Eurofins Pharma Discovery Services (CEREP diversity panel)

beta 1 (h) = target: T7, beta 1 (h) (Homo sapiens, UniProt P08588); assay: Cerep binding, agonist radioligand; conditions: read-out: % Inhibition of Control Specific Binding
T7 construct: purchased Eurofins Pharma Discovery Services (CEREP diversity panel)

A1 (h) = target: T8, A1 (h) (Homo sapiens, UniProt P30542); assay: Cerep binding, antagonist radioligand; conditions: read-out: % Inhibition of Control Specific Binding
T8 construct: purchased Eurofins Pharma Discovery Services (CEREP diversity panel)

SKCa channel = assay: Cerep binding, antagonist radioligand; conditions: 5 µM
D4.4 (h) = target: T9, D4.4 (h) (Homo sapiens, UniProt P21917); assay: Cerep binding, antagonist radioligand; conditions: read-out: % Inhibition of Control Specific Binding
T9 construct: purchased Eurofins Pharma Discovery Services (CEREP diversity panel)

[2] = target: T10, norepinephrine transporter (h) (Homo sapiens, UniProt P23975); assay: Cerep binding, antagonist radioligand; conditions: read-out: % Inhibition of Control Specific Binding
T10 construct: purchased Eurofins Pharma Discovery Services (CEREP diversity panel)

[3] = tested on: sigma (non-selective) (h); assay: Cerep binding, agonist radioligand; parameters: species or system human; conditions: 5 µM
5-HT transporter (h) = target: T11, 5-HT transporter (h) (Homo sapiens, UniProt P31645); assay: Cerep binding, antagonist radioligand; conditions: read-out: % Inhibition of Control Specific Binding
T11 construct: purchased Eurofins Pharma Discovery Services (CEREP diversity panel)

AMPA = assay: Cerep binding, agonist radioligand; conditions: 5 µM
S6P phosphorylation = assay: western blot, S6P phosphorylation in PANC-1; conditions: PANC-1, 1 h, 5 μM Deltarasin, 5 min EGF
Procedure: To examine whether PDEδ inhibition by Deltarasin and Deltazinone 1 downregulates the signal transduction via these pathways, we examined the phosphorylation of extracellular signal regulated kinase (Erk) and S6 Ribosomal Protein (S6P) in the oncogenic KRas-dependent Panc-Tu-1 and KRas-independent PANC-1 cells. […] Cells were lysed with RIPA-buffer (20 mM Tris pH 7.5, 150 mM NaCl, 0.5 mM Na2 EDTA, 1 % sodium deoxycholate, 0.1% sodium dodecyl sulfate, 1% IGEPAL supplemented with Complete Mini EDTA-free protease inhibitor (Roche Applied Science) and 1% phosphatase inhibitor cocktail 2 and 3 (P5726 and P0044, Sigma Aldrich), scraped off after 5 min on ice and centrifuged at 14,000g for 20 min at 4 °C. SDS–polyacrylamide gel electrophoresis was carried out with 10–25 μg of whole-cell lysate from each sample. The gels were blotted onto polyvinylidene difluoride membrane (Millipore) and blocked for 1 h at room temperature. […] Blots were scanned on a LI-COR Odyssey imaging system.
Western blots were quantified using ImageJ. The background of the blots was subtracted by applying the rolling ball subtraction with a radius of 50 pixels. Afterwards the integrated intensity of the bands was measured.

5-HT (non-selective) = assay: Cerep binding, agonist radioligand; conditions: 5 µM
D3 (h) = target: T12, D3 (h) (Homo sapiens, UniProt P35462); assay: Cerep binding, antagonist radioligand; conditions: read-out: % Inhibition of Control Specific Binding
T12 construct: purchased Eurofins Pharma Discovery Services (CEREP diversity panel)

GABA (non-selective) = assay: Cerep binding, agonist radioligand; conditions: 5 µM
Na+ channel (site 2) = assay: Cerep binding, antagonist radioligand; conditions: 5 µM
[4] = tested on: guanylyl cyclase (h) (activator effect); assay: Cerep enzyme and cell-based assays; type: biochemical, human; conditions: 5 µM
B1 (h) = target: T13, B1 (h) (Homo sapiens, UniProt P46663); assay: Cerep binding, agonist radioligand; conditions: read-out: % Inhibition of Control Specific Binding
T13 construct: purchased Eurofins Pharma Discovery Services (CEREP diversity panel)

PDE3A (h) = target: T14, PDE3A (h) (Homo sapiens, UniProt Q14432); assay: Cerep enzyme and cell-based assays; type: biochemical; conditions: read-out: % Inhibition of Control Values
T14 construct: Eurofins Pharma Discovery Services (CEREP diversity panel, outsourced assay)

MC4 (h) = target: T15, MC4 (h) (Homo sapiens, UniProt P32245); assay: Cerep binding, agonist radioligand; conditions: read-out: % Inhibition of Control Specific Binding
T15 construct: purchased Eurofins Pharma Discovery Services (CEREP diversity panel)

ER (non-selective) (h) = assay: Cerep binding, agonist radioligand; parameters: species or system human; conditions: 5 µM
KATP channel = assay: Cerep binding, antagonist radioligand; conditions: 5 µM
D1 (h) = target: T16, D1 (h) (Homo sapiens, UniProt P21728); assay: Cerep binding, antagonist radioligand; conditions: read-out: % Inhibition of Control Specific Binding
T16 construct: purchased Eurofins Pharma Discovery Services (CEREP diversity panel)

CCK1 (CCKA) (h) = target: T17, CCK1 (CCKA) (h) (Homo sapiens, UniProt P32238); assay: Cerep binding, agonist radioligand; conditions: read-out: % Inhibition of Control Specific Binding
T17 construct: purchased Eurofins Pharma Discovery Services (CEREP diversity panel)

PKCalpha (h) = target: T18, PKCalpha (h) (Homo sapiens, UniProt P17252); assay: Cerep enzyme and cell-based assays; type: biochemical; conditions: read-out: % Inhibition of Control Values
T18 construct: Eurofins Pharma Discovery Services (CEREP diversity panel, outsourced assay)

KV channel = assay: Cerep binding, antagonist radioligand; conditions: 5 µM
NOP (ORL1) (h) = target: T19, NOP (ORL1) (h) (Homo sapiens, UniProt P41146); assay: Cerep binding, agonist radioligand; conditions: read-out: % Inhibition of Control Specific Binding
T19 construct: purchased Eurofins Pharma Discovery Services (CEREP diversity panel)

opioid (non-selective) = assay: Cerep binding, antagonist radioligand; conditions: 5 µM
P2X = assay: Cerep binding, agonist radioligand; conditions: 5 µM
CCK2 (CCKB) (h) = target: T20, CCK2 (CCKB) (h) (Homo sapiens, UniProt P32239); assay: Cerep binding, agonist radioligand; conditions: read-out: % Inhibition of Control Specific Binding
T20 construct: purchased Eurofins Pharma Discovery Services (CEREP diversity panel)

Eg5 (h) = target: T21, Eg5 (h) (Homo sapiens, UniProt P52732); assay: Cerep enzyme and cell-based assays; type: biochemical; conditions: read-out: % Inhibition of Control Values
T21 construct: Eurofins Pharma Discovery Services (CEREP diversity panel, outsourced assay)

PPARgamma (h) = target: T22, PPARgamma (h) (Homo sapiens, UniProt P37231); assay: Cerep binding, agonist radioligand; conditions: read-out: % Inhibition of Control Specific Binding
T22 construct: purchased Eurofins Pharma Discovery Services (CEREP diversity panel)

Cl- channel (GABA-gated) = assay: Cerep binding, antagonist radioligand; conditions: 5 µM
5-lipoxygenase (h) = target: T23, 5-lipoxygenase (h) (Homo sapiens, UniProt P09917); assay: Cerep enzyme and cell-based assays; type: biochemical; conditions: read-out: % Inhibition of Control Values
T23 construct: purchased Eurofins Pharma Discovery Services (CEREP diversity panel)

AR (h) = target: T24, AR (h) (Homo sapiens, UniProt P10275, T878A); assay: Cerep binding, agonist radioligand; conditions: read-out: % Inhibition of Control Specific Binding
T24 construct: purchased Eurofins Pharma Discovery Services (CEREP diversity panel)

PDE1B (h) = target: T25, PDE1B (h) (Homo sapiens, UniProt Q01064); assay: Cerep enzyme and cell-based assays; type: biochemical; conditions: read-out: % Inhibition of Control Values
T25 construct: purchased Eurofins Pharma Discovery Services (CEREP diversity panel)

GR (h) = target: T26, GR (h) (Homo sapiens, UniProt P04150); assay: Cerep binding, agonist radioligand; conditions: read-out: % Inhibition of Control Specific Binding
T26 construct: purchased Eurofins Pharma Discovery Services (CEREP diversity panel)

V2 (h) = target: T27, V2 (h) (Homo sapiens, UniProt P30518); assay: Cerep binding, agonist radioligand; conditions: read-out: % Inhibition of Control Specific Binding
T27 construct: purchased Eurofins Pharma Discovery Services (CEREP diversity panel)

BLT1 (LTB4) (h) = target: T28, BLT1 (LTB4) (h) (Homo sapiens, UniProt Q15722); assay: Cerep binding, agonist radioligand; conditions: read-out: % Inhibition of Control Specific Binding
T28 construct: purchased Eurofins Pharma Discovery Services (CEREP diversity panel)

[5] = tested on: COMT (catechol-O-methyl transferase); assay: Cerep enzyme and cell-based assays; type: biochemical; conditions: 5 µM
B2 (h) = target: T29, B2 (h) (Homo sapiens, UniProt P30411); assay: Cerep binding, agonist radioligand; conditions: read-out: % Inhibition of Control Specific Binding
T29 construct: purchased Eurofins Pharma Discovery Services (CEREP diversity panel)

T4 sequence (P34981 whole entry): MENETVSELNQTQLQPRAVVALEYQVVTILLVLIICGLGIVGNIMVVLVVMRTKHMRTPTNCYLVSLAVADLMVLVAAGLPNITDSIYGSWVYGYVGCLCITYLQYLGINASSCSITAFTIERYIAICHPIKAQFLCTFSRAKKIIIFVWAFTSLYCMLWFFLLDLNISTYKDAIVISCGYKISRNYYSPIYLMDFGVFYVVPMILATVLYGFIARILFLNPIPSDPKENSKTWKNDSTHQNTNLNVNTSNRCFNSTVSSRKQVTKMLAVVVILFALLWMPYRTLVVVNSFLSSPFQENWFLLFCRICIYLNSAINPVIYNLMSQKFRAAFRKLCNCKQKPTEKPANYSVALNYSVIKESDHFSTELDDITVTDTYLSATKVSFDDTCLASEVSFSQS
T23 sequence (P09917 whole entry): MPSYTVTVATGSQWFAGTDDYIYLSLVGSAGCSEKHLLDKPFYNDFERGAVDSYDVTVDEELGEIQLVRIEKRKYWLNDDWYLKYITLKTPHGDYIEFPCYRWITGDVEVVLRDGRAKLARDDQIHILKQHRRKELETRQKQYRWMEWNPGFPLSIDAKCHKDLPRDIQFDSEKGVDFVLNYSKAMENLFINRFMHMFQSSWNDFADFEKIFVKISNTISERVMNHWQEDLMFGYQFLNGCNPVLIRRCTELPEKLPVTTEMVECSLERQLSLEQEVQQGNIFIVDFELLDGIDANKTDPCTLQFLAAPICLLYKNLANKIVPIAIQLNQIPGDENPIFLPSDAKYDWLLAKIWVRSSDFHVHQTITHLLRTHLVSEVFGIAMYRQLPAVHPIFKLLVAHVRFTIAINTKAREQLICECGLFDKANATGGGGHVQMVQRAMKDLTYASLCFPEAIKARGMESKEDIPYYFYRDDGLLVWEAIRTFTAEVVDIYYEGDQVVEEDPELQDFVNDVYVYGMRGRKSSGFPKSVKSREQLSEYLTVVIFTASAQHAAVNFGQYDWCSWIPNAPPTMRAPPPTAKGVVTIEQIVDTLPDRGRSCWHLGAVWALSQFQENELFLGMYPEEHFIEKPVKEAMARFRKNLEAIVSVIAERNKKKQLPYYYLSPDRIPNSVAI
T15 sequence (P32245 whole entry): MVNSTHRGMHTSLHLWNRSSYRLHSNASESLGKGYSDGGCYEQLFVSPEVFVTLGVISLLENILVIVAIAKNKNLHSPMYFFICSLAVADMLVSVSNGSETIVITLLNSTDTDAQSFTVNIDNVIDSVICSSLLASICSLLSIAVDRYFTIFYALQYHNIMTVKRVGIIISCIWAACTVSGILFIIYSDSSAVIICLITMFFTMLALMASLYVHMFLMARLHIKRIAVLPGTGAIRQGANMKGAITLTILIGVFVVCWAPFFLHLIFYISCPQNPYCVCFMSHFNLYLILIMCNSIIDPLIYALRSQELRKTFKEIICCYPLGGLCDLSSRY
T21 sequence (P52732 whole entry): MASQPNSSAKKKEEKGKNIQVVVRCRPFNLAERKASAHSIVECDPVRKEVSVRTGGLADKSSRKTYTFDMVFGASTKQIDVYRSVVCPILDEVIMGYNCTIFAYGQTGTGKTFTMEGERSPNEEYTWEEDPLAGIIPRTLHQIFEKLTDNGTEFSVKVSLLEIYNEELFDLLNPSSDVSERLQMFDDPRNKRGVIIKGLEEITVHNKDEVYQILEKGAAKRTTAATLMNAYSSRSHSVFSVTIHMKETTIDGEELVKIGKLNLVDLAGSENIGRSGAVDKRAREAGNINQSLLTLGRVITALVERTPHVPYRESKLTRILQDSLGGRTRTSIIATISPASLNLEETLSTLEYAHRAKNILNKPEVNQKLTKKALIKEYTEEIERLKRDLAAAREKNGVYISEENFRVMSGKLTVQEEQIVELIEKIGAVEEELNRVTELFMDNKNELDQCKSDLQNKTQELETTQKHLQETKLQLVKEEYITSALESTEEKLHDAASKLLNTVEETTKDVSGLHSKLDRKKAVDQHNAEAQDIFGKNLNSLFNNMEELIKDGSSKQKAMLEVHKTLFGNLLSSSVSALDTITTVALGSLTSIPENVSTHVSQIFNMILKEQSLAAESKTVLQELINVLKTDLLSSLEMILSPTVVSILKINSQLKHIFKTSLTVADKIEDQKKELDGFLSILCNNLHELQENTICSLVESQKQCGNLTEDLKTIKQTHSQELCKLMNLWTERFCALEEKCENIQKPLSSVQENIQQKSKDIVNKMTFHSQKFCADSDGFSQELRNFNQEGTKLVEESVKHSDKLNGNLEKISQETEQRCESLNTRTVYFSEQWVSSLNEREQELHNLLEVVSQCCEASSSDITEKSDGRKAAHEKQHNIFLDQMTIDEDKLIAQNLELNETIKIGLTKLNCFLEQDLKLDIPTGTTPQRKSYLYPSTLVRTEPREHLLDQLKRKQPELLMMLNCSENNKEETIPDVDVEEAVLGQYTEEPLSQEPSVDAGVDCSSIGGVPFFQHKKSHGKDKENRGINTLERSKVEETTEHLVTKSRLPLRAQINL
T5 sequence (P50052 whole entry): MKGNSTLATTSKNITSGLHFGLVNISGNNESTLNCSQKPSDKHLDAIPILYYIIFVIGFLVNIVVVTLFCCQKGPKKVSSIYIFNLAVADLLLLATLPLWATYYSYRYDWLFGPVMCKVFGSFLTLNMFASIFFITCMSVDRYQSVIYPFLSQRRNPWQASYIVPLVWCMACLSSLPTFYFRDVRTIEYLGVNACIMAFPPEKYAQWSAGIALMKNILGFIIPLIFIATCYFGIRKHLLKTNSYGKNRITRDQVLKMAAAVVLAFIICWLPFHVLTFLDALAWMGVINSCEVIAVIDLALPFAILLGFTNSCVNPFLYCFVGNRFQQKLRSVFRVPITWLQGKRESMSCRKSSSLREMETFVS
T25 sequence (Q01064 whole entry): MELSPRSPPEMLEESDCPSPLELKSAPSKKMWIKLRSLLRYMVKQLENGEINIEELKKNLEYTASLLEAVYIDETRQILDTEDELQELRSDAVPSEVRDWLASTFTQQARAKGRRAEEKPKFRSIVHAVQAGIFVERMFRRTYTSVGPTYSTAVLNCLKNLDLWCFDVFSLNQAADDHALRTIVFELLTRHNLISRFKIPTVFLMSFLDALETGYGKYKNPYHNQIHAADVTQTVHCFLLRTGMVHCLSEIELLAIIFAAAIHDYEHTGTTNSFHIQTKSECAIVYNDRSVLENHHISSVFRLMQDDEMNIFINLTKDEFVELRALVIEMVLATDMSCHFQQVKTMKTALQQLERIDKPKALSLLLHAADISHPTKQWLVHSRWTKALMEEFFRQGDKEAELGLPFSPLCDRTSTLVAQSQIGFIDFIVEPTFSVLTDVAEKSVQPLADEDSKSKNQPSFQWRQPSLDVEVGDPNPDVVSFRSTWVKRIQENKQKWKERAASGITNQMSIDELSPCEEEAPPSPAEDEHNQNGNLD
T14 sequence (Q14432 whole entry): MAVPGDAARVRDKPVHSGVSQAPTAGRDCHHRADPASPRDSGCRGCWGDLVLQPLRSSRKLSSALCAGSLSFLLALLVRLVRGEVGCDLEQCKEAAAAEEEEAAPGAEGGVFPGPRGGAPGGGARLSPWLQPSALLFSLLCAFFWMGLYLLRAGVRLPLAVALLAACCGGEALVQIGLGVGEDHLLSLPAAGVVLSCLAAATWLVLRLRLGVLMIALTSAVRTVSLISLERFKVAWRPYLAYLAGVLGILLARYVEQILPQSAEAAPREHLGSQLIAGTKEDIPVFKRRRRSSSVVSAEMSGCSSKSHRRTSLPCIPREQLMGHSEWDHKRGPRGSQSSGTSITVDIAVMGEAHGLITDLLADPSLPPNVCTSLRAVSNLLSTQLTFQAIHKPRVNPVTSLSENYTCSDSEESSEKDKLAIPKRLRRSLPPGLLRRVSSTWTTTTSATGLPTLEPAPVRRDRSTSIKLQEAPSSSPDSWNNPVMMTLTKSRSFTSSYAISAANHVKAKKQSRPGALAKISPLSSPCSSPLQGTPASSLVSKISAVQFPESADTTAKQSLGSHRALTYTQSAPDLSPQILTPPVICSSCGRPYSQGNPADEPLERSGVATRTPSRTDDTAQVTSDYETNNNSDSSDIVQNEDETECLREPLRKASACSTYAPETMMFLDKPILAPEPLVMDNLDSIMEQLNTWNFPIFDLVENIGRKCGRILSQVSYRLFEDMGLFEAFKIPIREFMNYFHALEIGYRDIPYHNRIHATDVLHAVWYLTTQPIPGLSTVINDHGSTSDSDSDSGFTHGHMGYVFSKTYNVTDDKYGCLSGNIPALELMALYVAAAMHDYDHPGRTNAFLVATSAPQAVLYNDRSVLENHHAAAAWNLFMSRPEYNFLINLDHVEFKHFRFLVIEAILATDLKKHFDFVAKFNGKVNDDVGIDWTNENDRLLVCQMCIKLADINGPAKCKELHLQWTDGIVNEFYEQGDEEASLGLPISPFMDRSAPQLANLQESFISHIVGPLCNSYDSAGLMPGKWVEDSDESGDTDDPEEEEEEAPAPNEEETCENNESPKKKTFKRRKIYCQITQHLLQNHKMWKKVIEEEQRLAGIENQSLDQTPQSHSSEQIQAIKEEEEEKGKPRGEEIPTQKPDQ
T9 sequence (P21917 whole entry): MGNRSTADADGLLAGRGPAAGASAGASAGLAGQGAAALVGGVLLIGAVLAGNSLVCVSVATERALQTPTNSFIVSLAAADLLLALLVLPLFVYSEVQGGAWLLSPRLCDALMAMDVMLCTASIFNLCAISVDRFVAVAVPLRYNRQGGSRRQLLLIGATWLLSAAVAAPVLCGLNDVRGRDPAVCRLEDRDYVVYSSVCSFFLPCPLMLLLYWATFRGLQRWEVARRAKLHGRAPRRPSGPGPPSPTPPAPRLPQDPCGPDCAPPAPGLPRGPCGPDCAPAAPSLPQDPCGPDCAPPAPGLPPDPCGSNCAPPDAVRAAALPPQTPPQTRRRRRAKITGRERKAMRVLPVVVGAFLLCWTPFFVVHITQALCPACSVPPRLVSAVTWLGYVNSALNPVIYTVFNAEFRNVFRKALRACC

Compound: c1ccc(Cn2c(-c3ccc(OC[C@H](C4CCNCC4)n4c(-c5ccccc5)nc5ccccc54)cc3)nc3ccccc32)cc1 [Deltarasin, reference compound]
- inhibition at 5 µM (D2S (h)): 98%
- inhibition at 5 µM (ETA (h)): 2%
- % Inhibition of Control Specific Binding [1]: 54%
- inhibition at 5 µM (CRF1 (h)): 34%
- inhibition at 5 µM (TRH1 (h)): 42%
- inhibition at 5 µM (AT2 (h)): 49%
- % Inhibition of Control Specific Binding (kainate): 14%
- % Inhibition of Control Specific Binding (BZD (central)): -17%
- inhibition at 5 µM (CB2 (h)): 24%
- inhibition at 5 µM (beta 1 (h)): 21%
- inhibition at 5 µM (A1 (h)): 37%
- % Inhibition of Control Specific Binding (SKCa channel): 3%
- inhibition at 5 µM (D4.4 (h)): 0%
- inhibition at 5 µM [2]: 70%
- % Inhibition of Control Specific Binding [3]: 57%
- inhibition at 5 µM (5-HT transporter (h)): 39%
- % Inhibition of Control Specific Binding (AMPA): 17%
- EGF-induced S6P phosphorylation (S6P phosphorylation): reduced in both lines
- % Inhibition of Control Specific Binding (5-HT (non-selective)): -1%
- inhibition at 5 µM (D3 (h)): 93%
- % Inhibition of Control Specific Binding (GABA (non-selective)): 14%
- % Inhibition of Control Specific Binding (Na+ channel (site 2)): 83%
- % Inhibition of Control Values [4]: 0%
- inhibition at 5 µM (B1 (h)): 3%
- inhibition at 5 µM (PDE3A (h)): 11%
- inhibition at 5 µM (MC4 (h)): 32%
- % Inhibition of Control Specific Binding (ER (non-selective) (h)): -19%
- % Inhibition of Control Specific Binding (KATP channel): -10%
- inhibition at 5 µM (D1 (h)): 99%
- inhibition at 5 µM (CCK1 (CCKA) (h)): 58%
- inhibition at 5 µM (PKCalpha (h)): 66%
- % Inhibition of Control Specific Binding (KV channel): -2%
- inhibition at 5 µM (NOP (ORL1) (h)): 10%
- % Inhibition of Control Specific Binding (opioid (non-selective)): 12%
- % Inhibition of Control Specific Binding (P2X): 10%
- inhibition at 5 µM (CCK2 (CCKB) (h)): 29%
- inhibition at 5 µM (Eg5 (h)): 9%
- inhibition at 5 µM (PPARgamma (h)): 21%
- % Inhibition of Control Specific Binding (Cl- channel (GABA-gated)): 2%
- inhibition at 5 µM (5-lipoxygenase (h)): 33%
- inhibition at 5 µM (AR (h)): -23%
- inhibition at 5 µM (PDE1B (h)): 12%
- inhibition at 5 µM (GR (h)): 40%
- inhibition at 5 µM (V2 (h)): 20%
- inhibition at 5 µM (BLT1 (LTB4) (h)): 19%
- % Inhibition of Control Values [5]: 4%
- inhibition at 5 µM (B2 (h)): 10%
